Source: patent EP0928793B1, “Thiazole derivatives” (F. HOFFMANN-LA ROCHE AG, priority 1998, dated 1999)

The molecules below were run against T1, vitronectin receptor αvβ3 (Homo sapiens, UniProt P05106+P06756) (assay: Inhibition of fibrinogen binding to immobilised vitronectin receptor αvβ3 (ELISA)). Settings: fibrinogen 1.5 µg/ml, receptor from human placenta coated on microtitre plates, overnight at room temperature, ELISA detection; read-out: VNR IC50.
T1 construct: Human placenta is stored at -80°C immediately after its excision; In order to extract the receptor; from tissue; host or cells: human placenta
Protocol: The inhibition of the binding of adhesive proteins such as e.g. fibrinogen to vitronectin receptors (such as e.g. αvβ3, αvβ5, αvβ6, αvβ8, etc. or to the fibrinogen receptor (αIIbβ3) by compounds of formula I can be determined as described by L. Alig et al. (J.Med.Chem. 1992, 35, 4393-4407).
In detail thereto, the wells of microtitre plates (Nunc-Immunoplate MaxiSorp) were coated overnight at 4°C with the vitronectin receptor αvβ3 (from human placenta, 100 µl/well) in a buffer system with 150 mmol/l NaCl, 1 mmol/CaCl2, 1 mmol/l MgCl2, 0.0005% Triton X-100 and 20 mmol/l Tris HCl, pH 7.4. The non-specific binding sites were blocked by incubation with 3.5% bovine serum albumin (BSA from Fluka) at 20°C for at least 1 h. Before the beginning of the test the plates were washed in each case once with 150 mmol/l NaCl, 1 mmol/l CaCl2, 1 mmol/l MgCl2 and 20 mmol/l Tris HCI, pH 7.4 (buffer A). The thus-coated plates can be stored for at least 2 months in the presence of 0.05% NaN3 (in buffer A) at 4°C in a humidity chamber without loss of binding activity. Fibrinogen (IMCO, free from fibronectin) was diluted to 1.5 µg/ml in buffer A in the presence of 1% BSA. The wells coated with the receptor were incubated with fibrinogen (100 µl/well) overnight at room temperature in the absence of or in the presence of increasing concentrations of RGDS (as the reference substance) or the compounds to be measured. Non-bound fibrinogen was removed by three-fold washing with buffer A and bound fibrinogen was detected by an ELISA procedure. Antibodies of rabbits directed against human fibrinogen (Dakopatts, Denmark), diluted in buffer A in the presence of 0.1% BSA, were added at room temperature for 1h., followed by incubation with biotinylated antibodies directed against rabbit immunoglobulin (Amersham) for 30 min. Non-bound antibodies were removed by three-fold washing with buffer A. Thereafter, the pre-formed streptavidin-biotinylated peroxidase complex (Amersham) was added for 30 min. Three-fold washing with buffer A was again carried out. After addition of the peroxidase substrate ABTS (2,2'-azino-bis(3-ethylbenzothiazoline-6-sulphonic acid), Boehringer Mannheim) the enzyme activity was measured with a multichannel photometer (UVmax, Molecular Devices). The difference between total binding activity (in the absence of a test substance) and non-specific binding activity (in the presence of 100 µM RGDS) is taken as the specific binding activity. The concentration of a test substance which is required to inhibit the specific binding activity by 50% was defined as the IC50.
The isolation of the receptor avb3 used in the test can be carried out as follows: Human placenta is stored at -80°C immediately after its excision. In order to extract the receptor, each placenta is superficially thawed and cut into narrow strips with a scalpel. The pieces are washed twice with a buffer of 150 mmol/l NaCl, 1 mmol/l CaCl2, 1 mmol/l MgCl2 and 20 mmol/l Tris HCl (pH 7.4). The proteins are extracted at room temperature for one hour with a buffer solution from 1% Triton X-100, 150 mmol/l NaCl, 1 mmol/l CaCl2, 1 mmol/l MgCl2, 20 mmol/l Tris HCl, 0.02% NaN3, 0.5 mmol/l phenylmethanesulphonyl fluoride, 1 mmol/l leupeptin and 2 mmol/l N-ethylmaleimide (pH 7.4) and filtered through sterile gauze. The filtrate is centrifuged at 30000 g for 30 min. at 4°C. The glycoproteins are firstly separated with the aid of a concanavalin A-Sepharose 4B column. The proteins bound to the column are eluted and then added to a Aeg-RGDS column. After repeated washing the bound vitronectin receptor is eluted by 3 mmol/l RGDS in a buffer of 0.1% Triton X-100, 150 mmol/l NaCl, 20 mmol/l Tris HCl, 1 mmol/l CaCl2, 1 mmol/l MgCl2, 0.05% NaN3 (pH 7.0).

T1 sequence (P06756 31-889 limits assumed): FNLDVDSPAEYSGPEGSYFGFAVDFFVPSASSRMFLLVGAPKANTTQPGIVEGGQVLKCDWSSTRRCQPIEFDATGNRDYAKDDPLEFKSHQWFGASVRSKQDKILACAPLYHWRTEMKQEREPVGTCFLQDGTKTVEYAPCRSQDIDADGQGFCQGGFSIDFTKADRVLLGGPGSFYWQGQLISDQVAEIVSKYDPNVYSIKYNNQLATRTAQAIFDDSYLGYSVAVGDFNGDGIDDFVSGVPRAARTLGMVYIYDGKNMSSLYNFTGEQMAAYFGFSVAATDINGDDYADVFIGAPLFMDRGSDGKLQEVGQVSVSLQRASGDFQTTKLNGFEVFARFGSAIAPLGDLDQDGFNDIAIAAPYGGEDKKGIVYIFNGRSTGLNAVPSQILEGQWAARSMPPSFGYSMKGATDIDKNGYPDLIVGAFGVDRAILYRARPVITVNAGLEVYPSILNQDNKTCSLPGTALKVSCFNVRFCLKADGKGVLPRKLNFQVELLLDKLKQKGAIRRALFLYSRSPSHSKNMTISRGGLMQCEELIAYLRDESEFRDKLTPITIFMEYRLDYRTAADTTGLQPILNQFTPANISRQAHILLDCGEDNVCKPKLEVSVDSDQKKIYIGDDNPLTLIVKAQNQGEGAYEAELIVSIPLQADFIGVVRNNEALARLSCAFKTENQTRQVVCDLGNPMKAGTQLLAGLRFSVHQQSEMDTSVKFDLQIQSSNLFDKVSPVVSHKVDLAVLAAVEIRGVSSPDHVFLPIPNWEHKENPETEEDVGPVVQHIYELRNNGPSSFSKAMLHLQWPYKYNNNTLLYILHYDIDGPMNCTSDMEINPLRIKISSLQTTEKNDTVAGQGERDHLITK
T1 sequence (P06756 891-1048 partner limits assumed): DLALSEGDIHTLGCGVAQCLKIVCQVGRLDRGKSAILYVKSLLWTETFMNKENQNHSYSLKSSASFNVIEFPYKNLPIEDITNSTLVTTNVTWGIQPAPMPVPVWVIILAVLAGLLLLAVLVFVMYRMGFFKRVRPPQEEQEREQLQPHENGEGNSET
T1 sequence (P05106 27-788): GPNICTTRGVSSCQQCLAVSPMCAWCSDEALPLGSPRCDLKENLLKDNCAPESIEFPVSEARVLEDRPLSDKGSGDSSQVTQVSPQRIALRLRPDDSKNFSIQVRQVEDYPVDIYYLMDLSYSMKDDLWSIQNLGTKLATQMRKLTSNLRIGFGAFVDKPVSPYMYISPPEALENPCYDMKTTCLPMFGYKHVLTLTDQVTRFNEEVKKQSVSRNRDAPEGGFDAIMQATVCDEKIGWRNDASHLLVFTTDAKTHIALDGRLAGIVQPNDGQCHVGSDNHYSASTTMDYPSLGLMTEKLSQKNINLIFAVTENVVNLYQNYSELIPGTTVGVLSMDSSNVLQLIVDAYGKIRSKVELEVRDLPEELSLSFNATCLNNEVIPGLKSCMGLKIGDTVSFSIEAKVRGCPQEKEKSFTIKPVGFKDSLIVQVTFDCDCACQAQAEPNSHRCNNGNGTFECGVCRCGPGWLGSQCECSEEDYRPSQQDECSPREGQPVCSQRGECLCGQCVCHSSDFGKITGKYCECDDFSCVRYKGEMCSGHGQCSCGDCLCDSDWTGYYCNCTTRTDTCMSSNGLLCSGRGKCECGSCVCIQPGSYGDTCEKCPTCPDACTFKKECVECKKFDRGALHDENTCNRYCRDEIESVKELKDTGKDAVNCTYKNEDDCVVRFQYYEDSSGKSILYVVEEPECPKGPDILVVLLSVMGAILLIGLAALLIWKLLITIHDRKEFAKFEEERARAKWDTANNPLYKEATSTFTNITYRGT

Row | IC50 [nM] | Structure (SMILES)
1 | 50 | Cc1nc(NC(=N)N)sc1C(=O)N1CCC[C@@H](COCC(=O)O)C1 [(R)-[1-(2-guanidino-4-methyl-thiazole-5-carbonyl)-piperidin-3-ylmethoxy]-acetic acid]
2 | 39 | Cc1nc(N=C(N)N)sc1C(=O)N1CCCC(COCC(=O)O)C1 (racemic) [rac [1-(2-guanidino-4-methyl-thiazole-5-carbonyl)-piperidin-3-ylmethoxy]-acetic acid]
3 | 70 | NC(N)=Nc1nc(-c2ccccc2)c(C(=O)N2CCCC(COCC(=O)O)C2)s1 (racemic) [rac [1-(2-guanidino-4-phenyl-thiazole-5-carbonyl)-piperidin-3-ylmethoxy]-acetic acid]
4 | 18 | CCCc1nc(N=C(N)N)sc1C(=O)N1CCCC(COCC(=O)O)C1 (racemic) [rac [1-(2-guanidino-4-propyl-thiazole-5-carbonyl)-piperidin-3-ylmethoxy]-acetic acid]
5 | 22 | CC(C)(C)c1nc(N=C(N)N)sc1C(=O)N1CCCC(COCC(=O)O)C1 (racemic) [rac [1-(4-tert-butyl-2-guanidino-thiazole-5-carbonyl)-piperidin-3-ylmethoxy]-acetic acid]
6 | 90 | NC(N)=Nc1nc(C2CCCC2)c(C(=O)N2CCCC(COCC(=O)O)C2)s1 (racemic) [rac [1-(4-cyclopentyl-2-guanidino-thiazol-5-ylcarbonyl)-piperidin-3-ylmethoxy]-acetic acid]
